Measured values reported in US20210023223A1, “HYDROCARBON / LIPID - CAROTENOID COMPLEXES” (IP SCIENCE LIMITED, priority 2018, published 2021).

Assays:
[1] = Size of lipid droplets of dairy butter, microscopy; type: physicochemical
Description: (§1) For measurement of lipid droplets and fat globules and quantification of their size binocular microscope Olympus BX41 was used with Cell^B software for morphometric analysis. All parameters were collected from 10 randomly selected microscopic fields at ×1000).
Incorporation of lycopene into the butter led to a significant increase in the size of its lipid droplets and many reached more than 100 or even 300 fold of their diameter. This effect was dose-dependent, and can already be observed for less than 1 molecule of lycopene to 224,000 molecules of butter triglycerides.

[2] = Size of Sunflower Oil lipid droplets, microscopy; type: physicochemical; parameters: Size of Sunflower Oil lipid droplets, Mean / Sunflower Oil lipid droplets, Droplet square: unit not given here
Description: as §1

[3] = Size of Cod Liver oil lipid structures, microscopy; type: physicochemical
Description: as §1
The effect of adding lycopene into another polyunsaturated oil, in this case cod liver oil, was a dose-dependent increase in the size of its lipid structures. For Olive and Sunflower oils this increase in diameter caused by lycopene could reach 20 fold, for Canola and Cod Liver oil it was 50 or 100 fold.

[4] = Spreadability of oil drops on the surface of water; type: physicochemical
Procedure: 1. A petri dish of 13.5 cm diameter was filled to the brim with unheated water.
2. 0.3 ml of Olive or Sunflower oil was dropped onto the surface from a standardised height (30 cm) using a 1 ml pipette.
3. The resultant droplets were photographed and measured 30 sec after impact.
4. For increased reliability, the procedure was repeated 5 times.
5. Steps 1-4 were then repeated for Olive and Sunflower oils with or without carotenoids in different concentrations.

[5] = Oil volume needed to cover water surface; type: physicochemical; details: vs unmodified olive oil
Description: The other way to assess changes in oil viscosity, caused by carotenoids, would be to measure how much oil would be needed to cover a water surface of the same size. The lower viscosity of the oil the more spreadable it will be, and consequently less of it would be needed to cover this surface. Therefore, by measuring how much oil would be required to cover a certain surface of water we can asses how deep changes in the lipid folding were made by incorporating carotenoids.
An additional nine heating experiments were carried out when either pure Napolina olive oil, Napolina olive oil containing Astaxanthin (7 mg/ml), or Napolina olive oil containing Lycopene (7 mg/ml) was carefully poured over the surface of the water in order to prevent evaporation. The amount of oil required to completely cover the surface of the 100 ml water sample in the cup (diameter—7.4 cm) was measured (15 ml Falcon laboratory tubes and 1 ml Pipetman pitettes were used) and recorded for each oil type. The thickness of the resulting oil film (necessary to completely cover water surface) was then calculated. Temperature change curves were compared for uncovered water and water samples overlayed with three varieties of oil at heating temperatures of 200° C., 250° C. and 300° C. Water samples overlaid with oils were heated until water reached boiling point (usually at 99° C.). […]

Melting time at 37° C. = type: physicochemical
Procedure: Approximately 20 mg of butter, or pork fat, or beef fat, or cocoa butter, or chocolate, with or without certain concentrations of carotenoids, were placed on the surface of the laboratory slides and incubated at 37° C. in a laboratory incubator (TLK39).
Results presented in FIG. 15 show three different carotenoids—lycopene, lutein and astaxanthin, can reduce, albeit to a different degree, the melting time of dark chocolate regardless of its tempering protocols: Protocol I—28° C., Protocol II—29° C., Protocol III—30° C.

[6] = Heating dairy butter to boiling point; type: physicochemical
Procedure: Small pieces of butter (about 1 g) were placed in a metallic tray. They were heated to 350° C. (Revotherm, Scientific Instruments Ltd.) and boiled for 3 minutes. Time taken to reach boiling point was fixed with a laboratory timer (QUANTUM).

[7] = Heating olive oil-in-water emulsions; type: physicochemical
[8] = system: moderately obese volunteers; experiment: LDL-Px, serum LDL peroxidase proteins; type: in vivo, human
Procedure: Study Design. The total number of volunteers recruited to take part in the study was 18 (9 male and 9 female subjects) Caucasians 40-67 years old.
Products Formulated with Lycopene was developed and made by Lycotec Ltd. (Cambridge, United Kingdom). The daily dose was 1 capsule of 20 mg of lycopene, and it was taken with the main meal of the day. The period of administration was 1 month.
LDL-Px and Lipoprotein O2. Activity of serum LDL peroxidase proteins, which include IgG with superoxide dismutase activity, was measured as described previously. Plasma oxygen, which carried by blood lipids/lipoproteins was measured by catalymetry.

[9] = Acid induced degradation at pH 2.5, gas chromatography; type: physicochemical; details: lycopene 1 mg or 3 mg per 1 gram of DHA; 37° C.
[10] = lycopene dose 0.1 per 30 g of the oil
[11] = lycopene dose 0.5 per 30 g of the oil
[12] = lycopene dose 1.0 per 30 g of the oil
[13] = lycopene dose 2.0 per 30 g of the oil
[14] = lycopene dose 3.5 per 30 g of the oil
[15] = lycopene dose 7.0 per 30 g of the oil
[16] = lycopene dose 10.0 per 30 g of the oil

For `CC(C)=CCC/C(C)=C/C=C/C(C)=C/C=C/C(C)=C/C=C/C=C(C)/C=C/C=C(C)/C=C/C=C(\C)CCC=C(C)C` [Lycopene], the “Size of butter lipid droplets, Mean” value ([1]; lycopene dose 0.1 per 30 g of butter) was 34.32 μm, the “Size of butter lipid droplets, Mean” value ([1]; lycopene dose 0.5 per 30 g of butter) was 60.39 μm and the “Size of butter lipid droplets, Mean” value ([1]; lycopene dose 1.0 per 30 g of butter) was 92.35 μm. For the same compound, the “Size of butter lipid droplets, Mean” value ([1]; lycopene dose 3.5 per 30 g of butter) was 90.18 μm, the “Size of butter lipid droplets, Mean” value ([1]; lycopene dose 7.0 per 30 g of butter) was 178.95 μm and the “Size of butter lipid droplets, Mean” value ([1]; lycopene dose 10.0 per 30 g of butter) was 141.17 μm. For the same compound, the “Increase in the size of butter lipid droplets (diameter)” value ([1]; many droplets, 'more than 100 or even 300 fold') was “more than 100 fold”, the “Size of Sunflower Oil lipid droplets, Mean” value [2, 10] was 65.16 and the “Sunflower Oil lipid droplets, Droplet square” value [2, 10] was 0.36. The “Size of Sunflower Oil lipid droplets, Mean” value [2, 11] was 144.82, the “Sunflower Oil lipid droplets, Droplet square” value [2, 11] was 1.20 and the “Size of Sunflower Oil lipid droplets, Mean” value [2, 12] was 79.73. The “Sunflower Oil lipid droplets, Droplet square” value [2, 12] was 0.72, the “Size of Sunflower Oil lipid droplets, Mean” value [2, 13] was 149.25 and the “Sunflower Oil lipid droplets, Droplet square” value [2, 13] was 1.32. The “Size of Sunflower Oil lipid droplets, Mean” value [2, 14] was 286.00, the “Sunflower Oil lipid droplets, Droplet square” value [2, 14] was 4.03 and the “Size of Sunflower Oil lipid droplets, Mean” value [2, 15] was 202.78. For the same compound, the “Sunflower Oil lipid droplets, Droplet square” value [2, 15] was 3.44, the “Size of Sunflower Oil lipid droplets, Mean” value [2, 16] was 434.81 and the “Sunflower Oil lipid droplets, Droplet square” value [2, 16] was 20.71. The “Increase in lipid droplet diameter, could reach” value ([2]; sunflower oil) was 20 fold, the “Increase in lipid droplet diameter” value [3] was 100 fold and the “Diameter of spread lipid drops relative to intact oil” value ([4]; 1 molecule of lycopene within about 120,000 molecules of oil lipids) was 6-8 fold. The “Increase of spreadability on the surface of the water” value ([4]; sunflower oil) was 23 fold, the “Reduction of oil required to cover the same water area” value [5] was about 60% and the “Melting time of dark chocolate” value (Melting time at 37° C.) was 8 min. For the same compound, the “Reduction of time to bring butter to its boiling point” value ([6]; number of lycopene molecules increased to 10) was 75%, the “Reduction of time to bring butter to its boiling point” value ([6]; one molecule of lycopene to more than 22,000 molecules of butter triglycerides) was 25% and the “Rate of heating of olive oil emulsion in water in the first 3 minutes” value ([7]; 50%:50%, 1 molecule lycopene to 67,000 or astaxanthin to 71,000 fatty acids, control 10° C.) was 18 °C. The “Maximum temperature the emulsion could reach” value ([7]; water to olive oil 75%:25%, control 62° C.) was 100 °C, the LDL-Px ([8]; after 20 mg lycopene daily for one month) was 286 ± 29^ ELISA × 10^3 and the LDL-Px ([8]; before, n = 18) was 545 ± 49^ ELISA × 10^3. The “Degradation of DHA at pH2.5” value [9] was “completely prevented”.
